Key:
[1] = system: BV-2 microglia cells; assay: Anti-inflammatory assessment in LPS-stimulated BV-2 cells (NO, ROS, IL-6, TNF-α); format: cell-based, mouse; conditions: 10 μM pretreatment 1 h, then LPS 18 h
Procedure: Mouse microglial (BV-2) cell line was a generous gift from Prof. Bożena Kamińska-Kaczmarek of the Nencki Institute of Experimental Biology, Polish Academy of Sciences, Warsaw, Poland. The cell culture medium: Dulbecco’s modified with high glucose (DMEM, Glutamx ThermoFisher) and supplemented with 10% inactivated fetal bovine serum heat (ThermoFisher), 100 IU/mL penicillin (Merck) and 100 μg/mL streptomycin (Merck). Cell culture conditions: culture flasks (area 175 cm^2, Nunc), temperature of 37 °C, 5% CO2. For the assessment of the effect of tested compounds on the quantities of reactive oxygen species, nitric oxide, and inflammatory markers, the BV-2 cells were positioned in a 96-well culture plate (5 × 10^4 cells per well, Falcon). In the case of cell membrane damage assay, a 96-well culture plate (2 × 10^4 cells per well, Falcon) was used. The cells were cultured in the incubator (37 °C, 5% CO2) for 24 h prior to the assay. The tested compounds were dissolved in DMSO to achieve the concentration of 10^–2 M. Serial dilutions of the compounds were prepared in PBS and added directly to the medium containing adherent cells. The resulting mixtures were examined for any evidence of precipitation or opalescence before the assay. BV-2 cells were incubated with selected molecules (6, 16 at a concentration of 10 μM) during 1 h. Subsequently, lipopolysaccharide (100 ng/mL) was added and the resulting mixture was incubated for 18 h. Next, the culture supernatant was collected to measure the levels of nitric oxide (NO), reactive oxygen species (ROS), IL-6, and TNF-α according to the procedures described in detail below. All experiments were performed in duplicates, in three independent experiments.
The quantities of NO produced by the cells were determined using DAN reagent (2,3-diaminonaphthalene), rendering the method protocol described by Nussler et al.[48] After incubating at room temperature for 15 min, the fluorescence intensity (EX 360; EM 440 nm) was measured using a microplate reader POLARstar Omega from BMG Labtech. The amounts of NO were then calculated as a percentage of the control (which represents the maximal response of LPS). ROS measurement. The fluorescent dye 2,7-dichlorodihydrofluorescein diacetate (DCFH-DA)[49] was utilized to determine the quantity of ROS released by BV-2 cells. After a 30 min incubation period at 37 °C with 10 μM DCFH-DA, the fluorescence intensity (EX 490; EM 520 nm) was examined using a microplate reader POLARstar Omega from BMG Labtech. The amounts of ROS were then expressed as a percentage of the control (which represents the maximal response of LPS). The IL-6 and TNF-α levels detected in the culture supernatants were quantified using LANCE Ultra TR-FRET detection kit (PerkinElmer), rendering the manufacturer’s procedure. The detection of IL-6 and TNF-α was performed independently in a 384-well plate according to the instructions provided. To each well of the plate, 15 μL of sample was added followed by the addition of 5 μL of premixed antibody solution. After incubating IL-6 for 1 h and TNF-α for 3 h in the absence of light, at 22 °C, the plates were transferred to an EnVision plate reader (PerkinElmer). Measurements were conducted at 320 nm wavelength for excitation, at 615 nm for donor emission, and at 660 nm for acceptor emission. The final data were determined as the ratio of the 660 nm signal to the 615 nm signal. The results represent the levels of each cytokine determined as a percentage of control (considered as maximal cell response to LPS). The GraphPad program was used to conduct statistical analysis, with all outcomes presented as mean values with standard deviation (SD). Differences between groups were assessed using one-way ANOVA, followed by post hoc analysis (Dunnett’s multiple comparison tests). Results were considered statistically significant if the p-value was less than 0.05. […]

[2] = Chemical stability assay in PBS; format: physicochemical
Procedure: The quantitative HPLC analyses were acquired using Waters Alliance e2695 separations module (Waters, Milford, CT, USA) containing 2998 photodiode array (PDA), a detector (Waters, Milford, CT, USA), and the SpeedROD RP-18e 50–4.6 mm column (Merck, KGaA, Darmstadt, Germany). The temperature of the column was preserved at 30 °C. […] Each sample was injected at a volume of 10 μL in triplicate. […] The stock solutions were mixed with methanol and diluted, resulting in various solutions with concentrations ranging from 1.0 to 0.125 μg/mL. These solutions were then utilized to generate calibration curves by plotting AUC versus concentration in μg/mL. The examined molecules (2 mg) were dissolved in 1 mL of Dulbecco’s phosphate buffered saline (DPBS). The mixture was then continuously agitated at 22 °C for 24 h using a thermoshaker. Following this period, the mixtures were filtered through a cellulose acetate syringe filter (with a pore size of 0.22 μm), moved to a chromatographic vial, and analyzed. To quantify the investigated compounds, the areas beneath their respective peaks on DAD chromatograms were employed. Solubility was calculated using the calibration curves. Chemical stability assay: Stock solution of 16 in DMSO (10 mg/mL) was used. Next, 25 μL of stock solution was mixed with 975 μL of PBS (Dulbecco’s phosphate-buffered saline, Sigma, Poland). […] HPLC analyses were used to quantify the percentage of molecules that remained at each time point relative to the 0 min time point. Brain tissue stability assay: […] Then, 50 μL of the stock solution was combined with 50 μL of ice-cold 50 mM Tris-HCl buffer (pH 7.4) and 150 μL of brain homogenate (suspended in 20 volumes of 50 mM Tris-HCl buffer, ice cold, pH 7.4). The mix was then incubated at 37 °C and quenched at several time points. To terminate the reaction mixture, 250 μL of the appropriate reaction mixture was mixed with 1000 μL of MeCM in the Eppendorf Tube. Following 10 min of shaking (1500 rpm), samples were centrifuged (10 000 rpm, 10 min, 4 °C) and the acquired supernatant was collected. Before conducting HPLC analysis, the supernatant was filtered via a cellulose acetate syringe filter with a pore size of 0.45 μm and then transferred to a chromatographic vial. HPLC analysis was used to determine the percentage of the tested molecule remaining at each time point, relative to the 0 min time point. Plasma stability assay was performed as described previously.[45] Frozen rat plasma (Wistar) was thawed. […] The samples were collected at relative time points. The reaction was terminated by adding 1200 of μL acetonitrile/methanol mixture (50:50, v/v). The samples were centrifuge at 25 000 rpm for 10 min. HPLC analysis was used to determine the percentage of the tested molecule remaining at each time point relative to the 0 min time point. All the experiments were performed in duplicate.

[3] = Stability under radioligand binding assay conditions (incubation with brain tissue); format: in vitro ADME; conditions: after 1 h of incubation with brain tissue

Structure (SMILES): Cc1c(OCc2ccccc2)cccc1N1CCN(CCOC(=O)CCCN)CC1.Cl.Cl [Compound 16, 1-(2-((4-Ammoniobutanoyl)oxy)ethyl)-4-(3-(benzyloxy)-2-methylphenyl)piperazin-1-ium Dichloride]
- LPS-induced IL-6 production [1]: significantly decreased
- LPS-induced NO production [1]: significantly decreased
- LPS-induced ROS production [1]: significantly decreased
- LPS-induced TNF-α production [1]: significantly decreased
- % compound remaining, rt ([2]; 0 min): 100 ± 0.2%
- % compound remaining, rt ([2]; 15 min): 98.43 ± 1.8%
- % compound remaining, rt ([2]; 30 min): 94.23 ± 1.8%
- % compound remaining, rt ([2]; 60 min): 92.46 ± 2.2%
- % compound remaining, rt ([2]; 120 min): 86.63 ± 2.3%
- % compound remaining, rt ([2]; 240 min): 62.21 ± 1.7%
- % of the compound remaining [3]: 98.21%

Reference: paper PMC10119930, “Dual Molecules Targeting 5-HT6 and GABA-A Receptors as a New Approach to Combat Depression Associated with Neuroinflammation” (ACS Chemical Neuroscience, 2023)
